Results published in article PMC9532703, “A novel small molecule RK-019 inhibits FGFR2-amplification gastric cancer cell proliferation and induces apoptosis in vitro and in vivo” (Frontiers in Pharmacology, 2022).

Key:
Test in all cases: Kinase selectivity panel
Type in all cases: biochemical
Abl (Q252H) (h) = target: T1, Abl (Q252H) (h) (Homo sapiens, UniProt P00519, Q252H); conditions: read-out: Inhibition(%) @ 1 µM RK-019
T1 construct: purchased Eurofins Discovery Services (KinaseProfiler)
How it was run: (§1)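 Recombinant human kinase incubated with 1 µM compound; ATP-site competition binding quantified in vitro as inhibition ratio.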

Aurora-C(h) = target: T2, Aurora-C(h) (Homo sapiens, UniProt Q9UQB9); conditions: read-out: Inhibition(%) @ 1 µM RK-019
T2 construct: purchased Eurofins Discovery Services (KinaseProfiler)
How it was run: as §1

BTK(R28H)(h) = target: T3, BTK(R28H)(h) (Homo sapiens, UniProt Q06187, R28H); conditions: read-out: Inhibition(%) @ 1 µM RK-019
T3 construct: purchased Eurofins Discovery Services (KinaseProfiler)
How it was run: as §1

CDK16/cyclinY(h) = target: T4, CDK16/cyclinY(h) (Homo sapiens, UniProt Q00536); conditions: read-out: Inhibition(%) @ 1 µM RK-019
T4 construct: purchased Eurofins Discovery Services (KinaseProfiler)
How it was run: as §1

CDK6/cyclinD3(h) = target: T5, CDK6/cyclinD3(h) (Homo sapiens, UniProt Q00534); conditions: read-out: Inhibition(%) @ 1 µM RK-019
T5 construct: purchased Eurofins Discovery Services (KinaseProfiler)
How it was run: as §1

CDK9/cyclin T1(h) = target: T6, CDK9/cyclin T1(h) (Homo sapiens, UniProt P50750); conditions: read-out: Inhibition(%) @ 1 µM RK-019
T6 construct: purchased Eurofins Discovery Services (KinaseProfiler)
How it was run: as §1

CDKL3(h) = target: T7, CDKL3(h) (Homo sapiens, UniProt Q8IVW4); conditions: read-out: Inhibition(%) @ 1 µM RK-019
T7 construct: purchased Eurofins Discovery Services (KinaseProfiler)
How it was run: as §1

DMPK(h) = target: T8, DMPK(h) (Homo sapiens, UniProt Q09013); conditions: read-out: Inhibition(%) @ 1 µM RK-019
T8 construct: purchased Eurofins Discovery Services (KinaseProfiler)
T8 sequence (Q09013 whole entry): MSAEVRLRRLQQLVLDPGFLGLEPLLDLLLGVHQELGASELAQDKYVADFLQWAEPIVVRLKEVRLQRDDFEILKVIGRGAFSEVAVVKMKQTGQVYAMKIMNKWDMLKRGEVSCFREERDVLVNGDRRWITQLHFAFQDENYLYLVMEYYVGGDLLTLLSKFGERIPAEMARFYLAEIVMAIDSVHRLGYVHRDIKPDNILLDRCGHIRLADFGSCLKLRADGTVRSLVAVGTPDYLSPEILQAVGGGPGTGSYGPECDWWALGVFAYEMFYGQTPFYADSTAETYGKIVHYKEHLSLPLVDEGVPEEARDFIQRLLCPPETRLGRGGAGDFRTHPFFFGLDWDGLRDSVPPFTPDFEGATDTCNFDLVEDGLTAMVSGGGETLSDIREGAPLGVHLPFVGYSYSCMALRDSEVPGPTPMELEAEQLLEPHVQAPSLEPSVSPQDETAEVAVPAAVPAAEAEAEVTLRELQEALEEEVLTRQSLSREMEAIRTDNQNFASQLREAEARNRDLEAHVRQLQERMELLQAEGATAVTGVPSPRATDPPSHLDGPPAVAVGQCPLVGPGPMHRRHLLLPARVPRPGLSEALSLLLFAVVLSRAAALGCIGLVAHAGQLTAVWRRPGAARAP
How it was run: as §1

DNA-PK(h) = target: T9, DNA-PK(h) (Homo sapiens, UniProt P78527); conditions: read-out: Inhibition(%) @ 1 µM RK-019
T9 construct: purchased Eurofins Discovery Services (KinaseProfiler)
How it was run: as §1

DYRK3(h) = target: T10, DYRK3(h) (Homo sapiens, UniProt O43781); conditions: read-out: Inhibition(%) @ 1 µM RK-019
T10 construct: purchased Eurofins Discovery Services (KinaseProfiler)
T10 sequence (O43781 whole entry): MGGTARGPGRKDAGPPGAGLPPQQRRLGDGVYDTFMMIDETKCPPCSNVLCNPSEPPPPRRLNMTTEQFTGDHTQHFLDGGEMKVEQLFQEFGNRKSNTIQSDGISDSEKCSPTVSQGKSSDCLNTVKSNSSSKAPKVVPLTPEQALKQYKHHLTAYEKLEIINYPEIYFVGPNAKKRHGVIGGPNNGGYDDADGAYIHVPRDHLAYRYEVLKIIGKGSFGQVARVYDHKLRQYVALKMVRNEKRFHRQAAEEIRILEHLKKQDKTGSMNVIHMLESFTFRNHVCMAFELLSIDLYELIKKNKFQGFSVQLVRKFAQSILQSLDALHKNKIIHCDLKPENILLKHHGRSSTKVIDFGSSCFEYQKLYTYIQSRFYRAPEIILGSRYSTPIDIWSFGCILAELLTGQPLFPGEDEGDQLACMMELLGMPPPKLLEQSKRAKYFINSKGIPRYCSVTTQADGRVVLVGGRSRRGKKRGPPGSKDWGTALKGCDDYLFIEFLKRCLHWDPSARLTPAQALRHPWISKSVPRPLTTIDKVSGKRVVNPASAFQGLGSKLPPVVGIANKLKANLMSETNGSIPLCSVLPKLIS
How it was run: as §1

ErbB2(h) = target: T11, ErbB2(h) (Homo sapiens, UniProt P04626); conditions: read-out: Inhibition(%) @ 1 µM RK-019
T11 construct: purchased Eurofins Discovery Services (KinaseProfiler)
How it was run: as §1

Fgr(h) = target: T12, Fgr(h) (Homo sapiens, UniProt P09769); conditions: read-out: Inhibition(%) @ 1 µM RK-019
T12 construct: purchased Eurofins Discovery Services (KinaseProfiler)
T12 sequence (P09769 whole entry): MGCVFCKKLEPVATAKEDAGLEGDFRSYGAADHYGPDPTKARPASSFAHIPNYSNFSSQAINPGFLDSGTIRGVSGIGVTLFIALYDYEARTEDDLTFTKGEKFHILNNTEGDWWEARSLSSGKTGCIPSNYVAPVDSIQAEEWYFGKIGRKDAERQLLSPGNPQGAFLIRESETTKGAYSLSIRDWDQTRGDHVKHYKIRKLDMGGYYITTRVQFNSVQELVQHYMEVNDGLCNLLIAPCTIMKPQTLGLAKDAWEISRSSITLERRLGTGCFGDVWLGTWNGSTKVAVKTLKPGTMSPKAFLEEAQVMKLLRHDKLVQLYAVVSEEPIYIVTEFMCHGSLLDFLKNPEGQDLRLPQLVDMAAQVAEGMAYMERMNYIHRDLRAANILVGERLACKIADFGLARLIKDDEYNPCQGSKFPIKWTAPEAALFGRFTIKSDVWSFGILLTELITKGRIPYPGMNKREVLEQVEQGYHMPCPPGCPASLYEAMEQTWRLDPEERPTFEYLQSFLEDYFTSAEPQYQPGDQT
How it was run: as §1

Flt4(h) = target: T13, Flt4(h) (Homo sapiens, UniProt P35916)
T13 construct: purchased Eurofins Discovery Services (KinaseProfiler)
T13 sequence (P35916 25-1363): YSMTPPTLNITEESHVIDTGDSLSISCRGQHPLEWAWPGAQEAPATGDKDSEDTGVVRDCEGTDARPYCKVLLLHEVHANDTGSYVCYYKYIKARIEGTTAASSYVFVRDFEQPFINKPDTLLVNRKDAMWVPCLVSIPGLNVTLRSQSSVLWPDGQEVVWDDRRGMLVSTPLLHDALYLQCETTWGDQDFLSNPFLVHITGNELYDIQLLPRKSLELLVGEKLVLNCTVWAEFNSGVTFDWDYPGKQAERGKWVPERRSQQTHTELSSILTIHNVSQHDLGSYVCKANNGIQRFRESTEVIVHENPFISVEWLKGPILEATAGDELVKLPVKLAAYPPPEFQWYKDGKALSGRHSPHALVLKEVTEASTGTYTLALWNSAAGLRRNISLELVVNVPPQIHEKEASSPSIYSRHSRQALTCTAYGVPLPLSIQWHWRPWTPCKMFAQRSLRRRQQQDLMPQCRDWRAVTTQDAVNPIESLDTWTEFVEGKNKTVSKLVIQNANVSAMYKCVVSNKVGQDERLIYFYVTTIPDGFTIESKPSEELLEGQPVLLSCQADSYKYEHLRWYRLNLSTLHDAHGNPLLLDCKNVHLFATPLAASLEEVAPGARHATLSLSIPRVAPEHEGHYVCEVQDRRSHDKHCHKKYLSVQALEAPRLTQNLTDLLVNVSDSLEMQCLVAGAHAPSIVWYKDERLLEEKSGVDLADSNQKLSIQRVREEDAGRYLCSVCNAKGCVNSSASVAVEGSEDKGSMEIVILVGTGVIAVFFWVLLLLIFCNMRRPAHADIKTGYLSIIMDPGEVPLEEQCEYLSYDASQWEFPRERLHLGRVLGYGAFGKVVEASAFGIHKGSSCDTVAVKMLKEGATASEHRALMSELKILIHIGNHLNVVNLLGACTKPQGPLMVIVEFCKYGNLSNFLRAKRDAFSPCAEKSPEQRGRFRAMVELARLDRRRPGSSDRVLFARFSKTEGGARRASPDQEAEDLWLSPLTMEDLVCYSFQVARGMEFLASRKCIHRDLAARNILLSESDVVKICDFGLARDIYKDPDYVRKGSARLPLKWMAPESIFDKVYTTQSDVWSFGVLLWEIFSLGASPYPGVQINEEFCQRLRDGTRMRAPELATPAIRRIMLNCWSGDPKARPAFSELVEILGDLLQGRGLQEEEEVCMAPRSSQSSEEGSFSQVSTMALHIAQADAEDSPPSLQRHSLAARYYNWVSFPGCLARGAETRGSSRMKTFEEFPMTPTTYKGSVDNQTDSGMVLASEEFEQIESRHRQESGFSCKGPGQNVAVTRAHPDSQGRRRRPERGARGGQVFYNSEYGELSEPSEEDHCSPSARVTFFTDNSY
How it was run: as §1

MAP4K3(h) = target: T14, MAP4K3(h) (Homo sapiens, UniProt Q8IVH8); conditions: read-out: Inhibition(%) @ 1 µM RK-019
T14 construct: purchased Eurofins Discovery Services (KinaseProfiler)
How it was run: as §1

MARK4(h) = target: T15, MARK4(h) (Homo sapiens, UniProt Q96L34); conditions: read-out: Inhibition(%) @ 1 µM RK-019
T15 construct: purchased Eurofins Discovery Services (KinaseProfiler)
How it was run: as §1

MKK6(h) = target: T16, MKK6(h) (Homo sapiens, UniProt P52564); conditions: read-out: Inhibition(%) @ 1 µM RK-019
T16 construct: purchased Eurofins Discovery Services (KinaseProfiler)
T16 sequence (P52564 whole entry): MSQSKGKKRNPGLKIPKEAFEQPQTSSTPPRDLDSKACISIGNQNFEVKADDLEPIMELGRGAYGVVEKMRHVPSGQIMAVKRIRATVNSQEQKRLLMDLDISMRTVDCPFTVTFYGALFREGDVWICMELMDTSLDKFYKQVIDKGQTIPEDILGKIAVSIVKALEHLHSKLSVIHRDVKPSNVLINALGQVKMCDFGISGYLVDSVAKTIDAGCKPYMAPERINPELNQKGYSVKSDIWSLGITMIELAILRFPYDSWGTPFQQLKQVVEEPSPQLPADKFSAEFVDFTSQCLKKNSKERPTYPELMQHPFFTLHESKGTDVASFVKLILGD
How it was run: as §1

MSSK1(h) = target: T17, MSSK1(h) (Homo sapiens, UniProt Q9UPE1); conditions: read-out: Inhibition(%) @ 1 µM RK-019
T17 construct: purchased Eurofins Discovery Services (KinaseProfiler)
T17 sequence (Q9UPE1 whole entry): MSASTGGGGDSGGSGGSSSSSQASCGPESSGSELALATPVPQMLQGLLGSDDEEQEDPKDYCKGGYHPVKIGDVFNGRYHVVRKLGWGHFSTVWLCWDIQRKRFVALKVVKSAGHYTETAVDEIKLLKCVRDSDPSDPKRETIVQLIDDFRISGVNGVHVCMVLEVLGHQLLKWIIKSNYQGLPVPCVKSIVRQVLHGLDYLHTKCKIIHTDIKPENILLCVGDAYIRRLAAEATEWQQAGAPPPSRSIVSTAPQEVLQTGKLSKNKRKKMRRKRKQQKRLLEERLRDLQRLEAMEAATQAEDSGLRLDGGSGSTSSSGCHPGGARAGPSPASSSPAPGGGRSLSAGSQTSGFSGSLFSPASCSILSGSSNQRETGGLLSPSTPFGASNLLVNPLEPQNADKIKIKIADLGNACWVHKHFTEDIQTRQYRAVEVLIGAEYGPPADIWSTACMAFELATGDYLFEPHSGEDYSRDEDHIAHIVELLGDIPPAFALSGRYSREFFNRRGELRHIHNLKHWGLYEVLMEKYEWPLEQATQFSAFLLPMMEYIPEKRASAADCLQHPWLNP
How it was run: as §1

MuSK(h) = target: T18, MuSK(h) (Homo sapiens, UniProt O15146); conditions: read-out: Inhibition(%) @ 1 µM RK-019
T18 construct: purchased Eurofins Discovery Services (KinaseProfiler)
How it was run: as §1

NIM1(h) = target: T19, NIM1(h) (Homo sapiens, UniProt Q8IY84); conditions: read-out: Inhibition(%) @ 1 µM RK-019
T19 construct: purchased Eurofins Discovery Services (KinaseProfiler)
How it was run: as §1

NUAK2(h) = target: T20, NUAK2(h) (Homo sapiens, UniProt Q9H093); conditions: read-out: Inhibition(%) @ 1 µM RK-019
T20 construct: purchased Eurofins Discovery Services (KinaseProfiler)
How it was run: as §1

PAK4(h) = target: T21, PAK4(h) (Homo sapiens, UniProt O96013); conditions: read-out: Inhibition(%) @ 1 µM RK-019
T21 construct: purchased Eurofins Discovery Services (KinaseProfiler)
How it was run: as §1

PDGFRα(h) = target: T22, PDGFRα(h) (Homo sapiens, UniProt P16234); conditions: read-out: Inhibition(%) @ 1 µM RK-019
T22 construct: purchased Eurofins Discovery Services (KinaseProfiler)
How it was run: as §1

PKCγ(h) = target: T23, PKCγ(h) (Homo sapiens, UniProt P05129); conditions: read-out: Inhibition(%) @ 1 µM RK-019
T23 construct: purchased Eurofins Discovery Services (KinaseProfiler)
How it was run: as §1

PhKγ2(h) = target: T24, PhKγ2(h) (Homo sapiens, UniProt P15735); conditions: read-out: Inhibition(%) @ 1 µM RK-019
T24 construct: purchased Eurofins Discovery Services (KinaseProfiler)
How it was run: as §1

Pim-1(h) = target: T25, Pim-1(h) (Homo sapiens, UniProt P11309); conditions: read-out: Inhibition(%) @ 1 µM RK-019
T25 construct: purchased Eurofins Discovery Services (KinaseProfiler)
How it was run: as §1

Ret(V804M)(h) = target: T26, Ret(V804M)(h) (Homo sapiens, UniProt P07949, V804M); conditions: read-out: Inhibition(%) @ 1 µM RK-019
T26 construct: purchased Eurofins Discovery Services (KinaseProfiler)
How it was run: as §1

SIK(h) = target: T27, SIK(h) (Homo sapiens, UniProt P57059); conditions: read-out: Inhibition(%) @ 1 µM RK-019
T27 construct: purchased Eurofins Discovery Services (KinaseProfiler)
How it was run: as §1

SLK(h) = target: T28, SLK(h) (Homo sapiens, UniProt Q9H2G2); conditions: read-out: Inhibition(%) @ 1 µM RK-019
T28 construct: purchased Eurofins Discovery Services (KinaseProfiler)
How it was run: as §1

TGFBR1(h) = target: T29, TGFBR1(h) (Homo sapiens, UniProt P36897); conditions: read-out: Inhibition(%) @ 1 µM RK-019
T29 construct: purchased Eurofins Discovery Services (KinaseProfiler)
How it was run: as §1

TLK1(h) = target: T30, TLK1(h) (Homo sapiens, UniProt Q9UKI8); conditions: read-out: Inhibition(%) @ 1 µM RK-019
T30 construct: purchased Eurofins Discovery Services (KinaseProfiler)
How it was run: as §1

TRB2(h) = target: T31, TRB2(h) (Homo sapiens, UniProt Q92519); conditions: read-out: Inhibition(%) @ 1 µM RK-019
T31 construct: purchased Eurofins Discovery Services (KinaseProfiler)
T31 sequence (Q92519 whole entry): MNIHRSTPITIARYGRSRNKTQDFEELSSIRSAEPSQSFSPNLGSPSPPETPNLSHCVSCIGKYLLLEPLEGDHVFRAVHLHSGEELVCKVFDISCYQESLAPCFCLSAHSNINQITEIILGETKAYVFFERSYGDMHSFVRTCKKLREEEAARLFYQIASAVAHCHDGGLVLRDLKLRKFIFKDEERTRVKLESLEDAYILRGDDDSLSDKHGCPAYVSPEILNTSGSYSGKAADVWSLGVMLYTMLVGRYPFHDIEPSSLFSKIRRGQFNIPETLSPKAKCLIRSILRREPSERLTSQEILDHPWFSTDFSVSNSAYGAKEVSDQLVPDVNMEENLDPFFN
How it was run: as §1

TTBK2(h) = target: T32, TTBK2(h) (Homo sapiens, UniProt Q6IQ55); conditions: read-out: Inhibition(%) @ 1 µM RK-019
T32 construct: purchased Eurofins Discovery Services (KinaseProfiler)
How it was run: as §1

Tec(h) activated = target: T33, Tec(h) activated (Homo sapiens, UniProt P42680); conditions: read-out: Inhibition(%) @ 1 µM RK-019
T33 construct: purchased Eurofins Discovery Services (KinaseProfiler)
How it was run: as §1

TrkA(h) = target: T34, TrkA(h) (Homo sapiens, UniProt P04629); conditions: read-out: Inhibition(%) @ 1 µM RK-019
T34 construct: purchased Eurofins Discovery Services (KinaseProfiler)
How it was run: as §1

cKit(D816H)(h) = target: T35, cKit(D816H)(h) (Homo sapiens, UniProt P10721, D816H); conditions: read-out: Inhibition(%) @ 1 µM RK-019
T35 construct: purchased Eurofins Discovery Services (KinaseProfiler)
How it was run: as §1

cKit(V654A)(h) = target: T36, cKit(V654A)(h) (Homo sapiens, UniProt P10721, V654A); conditions: read-out: Inhibition(%) @ 1 µM RK-019
T36 construct: purchased Eurofins Discovery Services (KinaseProfiler)
How it was run: as §1

COc1cc(OC)cc(N(CCN[C@H](C)CO)c2ccc3ncc(-c4cnn(C)c4)c(=O)n3c2)c1 [RK-019, (R)-7-((3,5-dimethoxyphenyl) (2-((1-hydroxypropan-2-yl)amino)ethyl)amino)-3-(1-methyl-1H-pyrazol-4-yl)-4H-pyrido [1,2-a]pyrimidin-4-one]
activity at 1 µM (Abl (Q252H) (h)): 46% | activity at 1 µM (Aurora-C(h)): 86% | activity at 1 µM (BTK(R28H)(h)): 83% | activity at 1 µM (CDK16/cyclinY(h)): 108% | activity at 1 µM (CDK6/cyclinD3(h)): 106% | activity at 1 µM (CDK9/cyclin T1(h)): 99% | activity at 1 µM (CDKL3(h)): 102% | activity at 1 µM (DMPK(h)): 98% | activity at 1 µM (DNA-PK(h)): 101% | activity at 1 µM (DYRK3(h)): 88% | activity at 1 µM (ErbB2(h)): 94% | activity at 1 µM (Fgr(h)): 54% | inhibition at 1 µM (Flt4(h); FLT4, 1 µM, read-out: inhibition (hit in panel)): > 90% | activity at 1 µM (Flt4(h); Flt4(h), read-out: Inhibition(%) @ 1 µM RK-019): 3% | activity at 1 µM (MAP4K3(h)): 132% | activity at 1 µM (MARK4(h)): 106% | activity at 1 µM (MKK6(h)): 83% | activity at 1 µM (MSSK1(h)): 135% | activity at 1 µM (MuSK(h)): 105% | activity at 1 µM (NIM1(h)): 103% | activity at 1 µM (NUAK2(h)): 90% | activity at 1 µM (PAK4(h)): 82% | activity at 1 µM (PDGFRα(h)): 50% | activity at 1 µM (PKCγ(h)): 92% | activity at 1 µM (PhKγ2(h)): 88% | activity at 1 µM (Pim-1(h)): 111% | activity at 1 µM (Ret(V804M)(h)): 56% | activity at 1 µM (SIK(h)): 89% | activity at 1 µM (SLK(h)): 99% | activity at 1 µM (TGFBR1(h)): 83% | activity at 1 µM (TLK1(h)): 98% | activity at 1 µM (TRB2(h)): 136% | activity at 1 µM (TTBK2(h)): 82% | activity at 1 µM (Tec(h) activated): 96% | activity at 1 µM (TrkA(h)): 92% | activity at 1 µM (cKit(D816H)(h)): 58% | activity at 1 µM (cKit(V654A)(h)): 104%
